Values of other authors in publication PMC7395068, “The evolution of strategies to minimise the risk of human drug-induced liver injury (DILI) in drug discovery and development” (Archives of Toxicology, 2020).
Where two headings read alike, the source gives them in different places.

Legend:
HepG2 cells [1] = conditions: cited from earlier work
[2] = cited from earlier work
[3] = ref Chen 2016; cited from earlier work
[4] = tested on: primary human hepatocytes, NIH3T3 fibroblasts, BSEP, CYP3A4; conditions: In vitro Assay; ref Schadt 2015; cited from earlier work
HepG2 cells [5] = conditions: In vitro Assay; ref O'Brien 2006; cited from earlier work
HepG2 cells [6] = conditions: In vitro Assay; ref Persson 2013; cited from earlier work
human hepatocytes = conditions: In vitro Assay; ref Xu 2008; cited from earlier work
[7] = tested on: THLE-Null and THLE-3A4 cells; conditions: In vitro Assay; ref Gustafsson 2014; cited from earlier work
[8] = tested on: HepG2 cells, primary human hepatocytes; conditions: In vitro Assay; ref Garside 2014; cited from earlier work
[9] = tested on: isolated mouse liver mitochondria; conditions: In vitro Assay; ref Porceddu 2012; cited from earlier work
[10] = ref Chen 2011; cited from earlier work
rBsep = conditions: In vitro Assay; ref Dawson 2012; cited from earlier work
[11] = tested on: THLE or HepG2 cells, isolated mitochondria, BSEP; conditions: In vitro Assay; ref Aleo 2019; cited from earlier work
PHH = conditions: In vitro Assay; ref Proctor 2017; cited from earlier work
hLiMTs = conditions: In vitro Assay; ref Proctor 2017; cited from earlier work
PHH spheroids = conditions: In vitro Assay; ref Vorrink 2018; cited from earlier work
[12] = tested on: HepG2 C3A spheroid, BSEP, Glu/Gal in HepG2 cells, bioactivation; conditions: In vitro Assay; ref Williams 2019; cited from earlier work
[13] = assignment in Tolosa 2012, ref Tolosa 2012
[14] = In vitro Assay, ref Tolosa 2012

[Cl][Hg][Cl] [mercury ii chloride]
Structural based (HCI), In vitro Assay (HepG2 cells [1]; HepG2 HCI, ref Tolosa 2012): +VE | In vivo DILI [2, 13]: +VE

O=[N+]([O-])c1ccc(O)c([N+](=O)[O-])c1 [2,4 dinitrophenol]
Structural based (HCI) (HepG2 cells [1]; [14]): +VE | In vivo DILI ([2]; ref Tolosa 2012): +VE

CC(C)(C)OO [tert-butyl hydroperoxide]
Structural based (HCI), In vitro Assay (HepG2 cells [1]): +VE | In vivo DILI ([2]; in vivo): +VE

CC1=C(CC(=O)O)c2cc(F)ccc2/C1=C\c1ccc([S+](C)[O-])cc1 (stereo not shown) [sulindac]
DILI +VE (5-8), DILI -VE (-4) [3]: +VE | DILI severity category [3]: vMost-DILI-Concern | Cellular toxicity (3T3 cells) [4]: -VE | Combined Assay [4]: +VE | GSH adduct HML [4]: +VE | Hepatocyte cellular toxicity [4]: -VE | MitoTox 3T3 [4]: -VE | TDI CYP3A4 [4]: -VE | hBSEP inhibition [4]: -VE | Structural based (HCI) (HepG2 cells [5]): +VE | Cluser analysis (HepG2 cells [6]): -VE | Structural based (HCI) (HepG2 cells [6]): -VE | Structural based (HCI) (human hepatocytes): +VE | In vivo DILI ([2]; […]): +VE | In vivo DILI ([2]; ref Aleo 2019): +VE | In vivo DILI ([2]; ref Dawson 2012): +VE | In vivo DILI ([2]; ref Garside 2014): +VE | In vivo DILI ([2]; ref Gustafsson 2014): +VE | In vivo DILI ([2]; ref O'Brien 2006): +VE | In vivo DILI ([2]; ref Persson 2013): +VE | In vivo DILI ([2]; ref Porceddu 2012): +VE | In vivo DILI ([2]; ref Schadt 2015): +VE | In vivo DILI ([2]; ref Xu 2008): +VE | THLE-Null [7]: -VE | Cluster 1-6 +VE Assay [8]: -VE | in vitro data EC2<=1x Cmax [9]: +VE | in vitro data EC20<=2uM [9]: +VE | DILI Score (FDA) (1-8) [10]: 8 | Inhibition of rBsep cutoff<1& cmax u>.2 (rBsep): +VE | Inhibition of rBsep cutoff<3 (rBsep): +VE

OC[C@H]1O[C@@H](O[C@H]2[C@H](O)[C@@H](O)C(O)O[C@@H]2CO)[C@H](O)[C@@H](O)[C@H]1O (mixture of isomers) [lactose]
Structural based (HCI) (HepG2 cells [1]): -VE | In vivo DILI ([2]; in vivo): -VE

C[C@H](CCC(=O)NCCS(=O)(=O)O)[C@H]1CC[C@H]2[C@@H]3CC[C@@H]4C[C@H](O)CC[C@]4(C)[C@H]3CC[C@]12C [taurolithocholate]
Structural based (HCI), In vitro Assay (HepG2 cells [1]; HepG2 HCI, ref Tolosa 2012): +VE | In vivo DILI [2, 13]: +VE

CCCC(CCC)C(=O)O [sodium valproate]
Structural based (HCI), In vitro Assay (HepG2 cells [1]; HepG2 HCI, ref Tolosa 2012): +VE

CN(CCCC(=O)c1cccnc1)N=O [nnk]
Structural based (HCI), In vitro Assay (HepG2 cells [1]; HepG2 HCI, ref Tolosa 2012): +VE | In vivo DILI [2, 13]: +VE

CCN(CC)CCOc1ccc2c(c1)C(=O)c1cc(OCCN(CC)CC)ccc1-2 [tilorone]
Structural based (HCI), In vitro Assay (HepG2 cells [1]; HepG2 HCI, ref Tolosa 2012): +VE | In vivo DILI [2, 13]: +VE

COC(c1ccccc1)(c1ccccc1)[C@H](Oc1nc(C)cc(C)n1)C(=O)O [ambrisentan]
DILI +VE (5-8), DILI -VE (-4) [3]: -VE | DILI severity category [3]: Ambiguous DILI-concern | Cellular toxicity (3T3 cells) [4]: -VE | Combined Assay [4]: -VE | GSH adduct HML [4]: -VE | Hepatocyte cellular toxicity [4]: -VE | MitoTox 3T3 [4]: -VE | TDI CYP3A4 [4]: -VE | hBSEP inhibition [4]: -VE | Partition Hybrid HRM Score [11]: -VE | Ro2 Hybrid HRM Score [11]: -VE | PHH ATP <100uM (PHH): -VE | hLiMTs ATP <100uM (hLiMTs): -VE | hLiMTs ATP <20 x Cmax (PHH spheroids): -VE | Bayesian Machine Learning [12]: -VE | In vivo DILI ([2]; ref Proctor 2017): -VE | In vivo DILI ([2]; ref Schadt 2015): -VE | In vivo DILI ([2]; ref Vorrink 2018): -VE | In vivo DILI ([2]; ref Williams 2019): -VE | DILI Score (FDA) (1-8) [10]: 5

CN1[C@@H]2CC[C@H]1C[C@@H](OC(=O)C(CO)c1ccccc1)C2 (stereo partly shown) [atropine]
Structural based (HCI) (HepG2 cells [1]): +VE

C[C@H](CCC(=O)NCC(=O)O)[C@H]1CC[C@H]2[C@@H]3[C@H](O)C[C@@H]4C[C@H](O)CC[C@]4(C)[C@H]3CC[C@]12C [glycochenodeoxycholate]
Structural based (HCI), In vitro Assay (HepG2 cells [1]; HepG2 HCI, ref Tolosa 2012): +VE | In vivo DILI [2, 13]: +VE

CC(C)(OO)c1ccccc1 [cumene hydroperoxide]
Structural based (HCI) (HepG2 cells [1]; [14]): +VE | In vivo DILI ([2]; ref Tolosa 2012): +VE
